Data from paper PMC11016601, “Exploring the bioaccessibility and intestinal absorption of major classes of pure phenolic compounds using in vitro simulated gastrointestinal digestion” (Heliyon, 2024).
Where “and” joins values, the source holds several entries; their conditions need not be identical. Equal values may be shown once. Marks after values point to notes of the source that are not given here.

tested on: not listed separately; assay: In vitro simulated gastrointestinal digestion (SGD, INFOGEST 2.0): concentration and bioaccessibility by UHPLC-DAD-MSn; details: 2 min
Method: Preliminary solubility tests in different solvents, namely water, sodium phosphate buffer (26.8 mM, pH 6.1), ethanol, and also a mixture of ethanol with both water and sodium phosphate buffer, were carried out for each PC (data not shown), to prevent erroneous data arising from compounds precipitation. Ethanol percentages used in these preliminary solubility tests were 10, 15, and 20% (v/v).
Each PC solubilized in ethanol:water (15% v/v) was then submitted to an in vitro SGD (INFOGEST 2.0), according to a standardized protocol (Fig. 2). In order to determine whether the interaction between the compounds and enzymes led to an underestimation of their content, each PC solution was submitted to the same digestion procedure, replacing the enzyme solutions with water, which were designed as controls, henceforth this will be the term used. Each sample and control were submitted to three independent in vitro digestion simulations, and after each digestion phase, a sample/control was collected and further analyzed and quantified by UHPLC-DAD-MSn.
(§1) Mouth digestion of each PC solution (1 mL) was diluted in 0.8 mL of simulated salivary fluid (SSF) and α-amylase (75 U mL-1). Then, the mixture was incubated for 2 min at 37 °C under agitation (200 rpm). In order to start gastric digestion, pH was adjusted to 3.0 using 1 M aqueous HCl and then, a pepsin solution (2000 U mL-1) and simulated gastric fluid (SGF) were added. Subsequently, the mixture was incubated for 2h, at 37 °C and 130 rpm orbital agitation for the stomach digestion. Finally, the small intestine digestion simulation was performed after pH adjustment to 7.0 using 1 M aqueous […] and the addition of pancreatin (100 U mL-1), bile salts solution (10 mM) and simulated intestinal fluid (SIF), during 2 h, at 37 °C with 45 rpm orbital agitation. Natural small intestine absorption was also simulated, by placing the remaining sample in a dialysis membrane, and immersed in distilled water overnight at room temperature.
At each sampling point, an aliquot (0.5 mL) from each of the three replicates was collected. The enzymatic activity was stopped immediately by adding pure methanol to each aliquot (1:1, v/v) to promote enzyme precipitation and subsequently centrifuged at 10 000 g and 4 °C for 5 min. The supernatants were filtered with a 0.2 μm nylon filter. To determine the concentration of each sample or control, it was considered the following dilution factor – 1:2, 1:4 and 1:8 for oral, gastric and intestinal digestion phase, respectively.
The bioaccessibility percentage (B%) of each PC was calculated using equation (1):(1) B(%)=[DS]/[IS]×100 where IS is the initial concentration of PCs in ethanol:water (15% v/v) solutions, DS is the concentration of each collected sample or control (without enzymes).
(§2) The values of B% and IA% were the average of the three replicates performed, with the calculated standard deviation.
PCs were analyzed in a UHPLC system equipped with a variable loop Accela autosampler (set at 16 °C), an Accela 600 LC pump, and an Accela 80 Hz photo diode array detector (DAD) (Thermo Fisher Scientific, San Jose, CA, USA). Each sample was prepared in methanol:water (1:1, v/v) and filtered through a 0.2 μm nylon syringe filter. […] The mobile phase was composed of acetonitrile (A) and water:acetonitrile (99:1, v/v) (B), both with 0.1 % of formic acid. The gradient elution was performed as follows: 0–1min: 99% B; 1–17 min: 99-73% B, 17–20 min: 73-0% B, 20–25 min: 0–99% B, followed by re-equilibration of the column at 99% B for 4 min.

Concentration, oral phase (O) [µg/mL] | Structure (SMILES) | Bioaccessibility (%), oral phase (O)
 | O=C1C[C@@H](c2ccc(O)cc2)Oc2cc(O)cc(O)c21 [NAR, (+)-naringenin] | 97.26 ± 5.50%
334.93 ± 40.32 | C[C@@H]1O[C@@H](O[C@H]2[C@H](Oc3cc(O)c4c(c3)O[C@H](c3ccc(O)cc3)CC4=O)O[C@H](CO)[C@@H](O)[C@@H]2O)[C@H](O)[C@H](O)[C@H]1O [NARN, naringin] | 133.20 ± 16.03^ a %

same assay, conditions: controls (without enzymes); gastric phase

Structure (SMILES) | Bioaccessibility (%), gastric phase (G) | Concentration, gastric phase (G) [µg/mL]
O=C1C[C@@H](c2ccc(O)cc2)Oc2cc(O)cc(O)c21 [NAR, (+)-naringenin] | 84.37% and 84.37 ± 4.60% | 301.86 ± 16.45
C[C@@H]1O[C@@H](O[C@H]2[C@H](Oc3cc(O)c4c(c3)O[C@H](c3ccc(O)cc3)CC4=O)O[C@H](CO)[C@@H](O)[C@@H]2O)[C@H](O)[C@H](O)[C@H]1O [NARN, naringin] | 132.25 ± 6.73^ a % | 332.53 ± 16.91

same assay, conditions: controls (without enzymes); initial solution

Structure (SMILES) | Concentration, initial solution (IS) [µg/mL]
O=C1C[C@@H](c2ccc(O)cc2)Oc2cc(O)cc(O)c21 [NAR, (+)-naringenin] | 357.76
C[C@@H]1O[C@@H](O[C@H]2[C@H](Oc3cc(O)c4c(c3)O[C@H](c3ccc(O)cc3)CC4=O)O[C@H](CO)[C@@H](O)[C@@H]2O)[C@H](O)[C@H](O)[C@H]1O [NARN, naringin] | 251.44

same assay, conditions: controls (without enzymes); initial solution, reference

Structure (SMILES) | Bioaccessibility (%), initial solution (IS)
O=C1C[C@@H](c2ccc(O)cc2)Oc2cc(O)cc(O)c21 [NAR, (+)-naringenin] | 100%
C[C@@H]1O[C@@H](O[C@H]2[C@H](Oc3cc(O)c4c(c3)O[C@H](c3ccc(O)cc3)CC4=O)O[C@H](CO)[C@@H](O)[C@@H]2O)[C@H](O)[C@H](O)[C@H]1O [NARN, naringin] | 100 ^a %

same assay, conditions: controls (without enzymes); intestinal phase

Structure (SMILES) | Bioaccessibility (%), intestinal phase (I) | Concentration, intestinal phase (I) [µg/mL]
O=C1C[C@@H](c2ccc(O)cc2)Oc2cc(O)cc(O)c21 [NAR, (+)-naringenin] | 68.99% and 68.99 ± 33.64% | 246.82 ± 120.35
C[C@@H]1O[C@@H](O[C@H]2[C@H](Oc3cc(O)c4c(c3)O[C@H](c3ccc(O)cc3)CC4=O)O[C@H](CO)[C@@H](O)[C@@H]2O)[C@H](O)[C@H](O)[C@H]1O [NARN, naringin] |  | 319.15 ± 27.85

same assay, conditions: controls (without enzymes); oral phase

Structure (SMILES) | Bioaccessibility (%), oral phase (O) | Concentration, oral phase (O) [µg/mL]
O=C1C[C@@H](c2ccc(O)cc2)Oc2cc(O)cc(O)c21 [NAR, (+)-naringenin] | 102.62% and 102.62 ± 1.12% | 367.13 ± 4.00
C[C@@H]1O[C@@H](O[C@H]2[C@H](Oc3cc(O)c4c(c3)O[C@H](c3ccc(O)cc3)CC4=O)O[C@H](CO)[C@@H](O)[C@@H]2O)[C@H](O)[C@H](O)[C@H]1O [NARN, naringin] | 128.18 ± 14.55^ a % | 322.30 ± 36.59

same assay, conditions: samples with enzymes; after gastric digestion pH 3.0

Structure (SMILES) | Concentration, gastric phase (G) [µg/mL]
O=C1C[C@@H](c2ccc(O)cc2)Oc2cc(O)cc(O)c21 [NAR, (+)-naringenin] | 282.96 ± 24.94
C[C@@H]1O[C@@H](O[C@H]2[C@H](Oc3cc(O)c4c(c3)O[C@H](c3ccc(O)cc3)CC4=O)O[C@H](CO)[C@@H](O)[C@@H]2O)[C@H](O)[C@H](O)[C@H]1O [NARN, naringin] | 365.14 ± 71.37

same assay, conditions: samples with enzymes; after intestinal digestion pH 7.0

Structure (SMILES) | Concentration, intestinal phase (I) [µg/mL]
O=C1C[C@@H](c2ccc(O)cc2)Oc2cc(O)cc(O)c21 [NAR, (+)-naringenin] | 233.10 ± 102.39
C[C@@H]1O[C@@H](O[C@H]2[C@H](Oc3cc(O)c4c(c3)O[C@H](c3ccc(O)cc3)CC4=O)O[C@H](CO)[C@@H](O)[C@@H]2O)[C@H](O)[C@H](O)[C@H]1O [NARN, naringin] | 351.21 ± 53.27

same assay, conditions: samples with enzymes; after oral digestion

Structure (SMILES) | Concentration, oral phase (O) [µg/mL]
O=C1C[C@@H](c2ccc(O)cc2)Oc2cc(O)cc(O)c21 [NAR, (+)-naringenin] | 347.95 ± 19.67

same assay, conditions: samples with enzymes; gastric phase

Structure (SMILES) | Bioaccessibility (%), gastric phase (G)
O=C1C[C@@H](c2ccc(O)cc2)Oc2cc(O)cc(O)c21 [NAR, (+)-naringenin] | 79.09% and 79.09 ± 6.97%
C[C@@H]1O[C@@H](O[C@H]2[C@H](Oc3cc(O)c4c(c3)O[C@H](c3ccc(O)cc3)CC4=O)O[C@H](CO)[C@@H](O)[C@@H]2O)[C@H](O)[C@H](O)[C@H]1O [NARN, naringin] | 145.2% and 145.22 ± 28.38^ a %

same assay, conditions: samples with enzymes; intestinal phase

Structure (SMILES) | Bioaccessibility (%), intestinal phase (I)
O=C1C[C@@H](c2ccc(O)cc2)Oc2cc(O)cc(O)c21 [NAR, (+)-naringenin] | 65.15% and 65.15 ± 28.62%
C[C@@H]1O[C@@H](O[C@H]2[C@H](Oc3cc(O)c4c(c3)O[C@H](c3ccc(O)cc3)CC4=O)O[C@H](CO)[C@@H](O)[C@@H]2O)[C@H](O)[C@H](O)[C@H]1O [NARN, naringin] | 139.68% and 139.68 ± 21.19^ a %

same assay, conditions: samples with enzymes; oral phase

Structure (SMILES) | Bioaccessibility (%), oral phase (O) [%]
O=C1C[C@@H](c2ccc(O)cc2)Oc2cc(O)cc(O)c21 [NAR, (+)-naringenin] | 97.26
C[C@@H]1O[C@@H](O[C@H]2[C@H](Oc3cc(O)c4c(c3)O[C@H](c3ccc(O)cc3)CC4=O)O[C@H](CO)[C@@H](O)[C@@H]2O)[C@H](O)[C@H](O)[C@H]1O [NARN, naringin] | 133.2

same assay, conditions: samples; initial ethanol:water (15% v/v) solution

Structure (SMILES) | Concentration, initial solution (IS) [µg/mL]
O=C1C[C@@H](c2ccc(O)cc2)Oc2cc(O)cc(O)c21 [NAR, (+)-naringenin] | 357.76
C[C@@H]1O[C@@H](O[C@H]2[C@H](Oc3cc(O)c4c(c3)O[C@H](c3ccc(O)cc3)CC4=O)O[C@H](CO)[C@@H](O)[C@@H]2O)[C@H](O)[C@H](O)[C@H]1O [NARN, naringin] | 251.44

same assay, conditions: samples; initial solution, reference

Structure (SMILES) | Bioaccessibility (%), initial solution (IS)
O=C1C[C@@H](c2ccc(O)cc2)Oc2cc(O)cc(O)c21 [NAR, (+)-naringenin] | 100%
C[C@@H]1O[C@@H](O[C@H]2[C@H](Oc3cc(O)c4c(c3)O[C@H](c3ccc(O)cc3)CC4=O)O[C@H](CO)[C@@H](O)[C@@H]2O)[C@H](O)[C@H](O)[C@H]1O [NARN, naringin] | 100 ^a %

tested on: not listed separately; assay: Simulation of intestinal absorption using a dialysis membrane (3 kDa) after in vitro SGD; details: not given
Source text: HPLC-grade methanol, water, and acetonitrile were supplied by Fisher Scientific Chemicals. The enzymes α-amylase (A1031), pepsin from porcine stomach mucosa (P7012), pancreatin from porcine pancreas (P7545), and bile salts (B863) were purchased from Sigma-Aldrich (Taufkirchen, Germany). The rabbit gastric extract (RGE15) with gastric lipase activity was purchased from Lipolytech (Marseille, France). The ethanol was purchased from Merck (Algés, Portugal). A dialysis membrane with a molecular pore size of 3 kDa was purchased from Spectra/Pro (Spectrum Lab, Breda, Netherlands).
as §1
Furthermore, to determine the intestinal absorption, the aliquots collected inside the dialysis membrane were analyzed. The concentration of these samples (from inside of the membrane) corresponds to the amount of each PC that has not passed through to the outside of the membrane.
as §2

Structure (SMILES) | Concentration, dialysis phase (D) [µg/mL]
O=C1C[C@@H](c2ccc(O)cc2)Oc2cc(O)cc(O)c21 [NAR, (+)-naringenin] | 3.29 ± 0.96
C[C@@H]1O[C@@H](O[C@H]2[C@H](Oc3cc(O)c4c(c3)O[C@H](c3ccc(O)cc3)CC4=O)O[C@H](CO)[C@@H](O)[C@@H]2O)[C@H](O)[C@H](O)[C@H]1O [NARN, naringin] | 4.46 ± 0.44

same assay, conditions: pig

Structure (SMILES) | Concentration, dialysis phase (D) [µg/mL]
O=C1C[C@@H](c2ccc(O)cc2)Oc2cc(O)cc(O)c21 [NAR, (+)-naringenin] | 17.50 ± 3.80
C[C@@H]1O[C@@H](O[C@H]2[C@H](Oc3cc(O)c4c(c3)O[C@H](c3ccc(O)cc3)CC4=O)O[C@H](CO)[C@@H](O)[C@@H]2O)[C@H](O)[C@H](O)[C@H]1O [NARN, naringin] | 17.29 ± 1.75

tested on: Caco-2 cell monolayers; assay: not given; details: Caco-2; ref Tourniaiere et al. (2005); cited from earlier work

Structure (SMILES) | Papp value of apical to basolateral direction
C[C@@H]1O[C@@H](O[C@H]2[C@H](Oc3cc(O)c4c(c3)O[C@H](c3ccc(O)cc3)CC4=O)O[C@H](CO)[C@@H](O)[C@@H]2O)[C@H](O)[C@H](O)[C@H]1O [NARN, naringin] | low
